Data published in US20230105103A1, “THERAPEUTIC MOLECULES FOR COMBATING SEPSIS” (CENTRE FOR CELLULAR AND MOLECULAR PLATFORMS, priority 2019, published 2023).
“Also recorded” adds a separate entry of the source.

Assays:
[1] = system: CLP model of sepsis in mice; test: CLP study, survival of mice treated with chito-oligomers; type: in vivo; details: for survival over 7 days: intervention at 6 hours post-surgery, about 250 μg single IP dose with antibiotics, FIG. 5A; for protection over 'Antibiotic-alone' group: intervention at 6 hours, 7 days
Protocol: The CLP study with 7-9 week old C57BL/6 or BALB/c males was conducted, at animal house facility at TheraIndx Lifesciences Pvt. Ltd. (Bangalore, India) and Institute of Life Sciences (Bhubaneswar, India) respectively, in accordance with ethical practices laid down in the CPCSEA guidelines for animal care and use (CPCSEA, 2003). The Institutional Animals Ethics Committee (IAEC) of the test facility approved the studies. The CLP was performed as described before (Rittirsch et al., 2009; Toscano et al., 2011). […] About 500 μl saline was administered subcutaneously immediately after surgery. Tramadol (about 20 mg/kg) was injected subcutaneously for post-operative analgesia. […] A separate group of C57BL/6 mice received single IP dose of about 250 μg of 6-mer, 7-mer or 8-mer at either 6 hour or 24 hour post CLP. All groups except the CLP alone (control) received a single dose of standard antibiotics (amoxicillin and clavulanate) 6 hour post CLP. Control group was injected with saline solution. Total of 92 C57BL/6 and 18 BALB/c mice were used in the study.
Experimental data were analyzed using GraphPad Prism 8 (GraphPad Software, Inc.). Kruskal-Wallis test and one way ANOVA test was used for analysis of cytokines and reporter assay values. Log-rank (Mantel-Cox) test was utilized for survival analysis. P-values, P<0.05 were considered statistically significant and are denoted by […] if calculated P-values were lower than P=0.05.

TLR2 [2] = molecular target: T1, TLR2 (Homo sapiens, UniProt O60603); test: HEK-Blue TLR2 reporter assay (NF-kb and AP-1 driven SEAP); type: cell-based; parameters: host or cells: HEK293 (HEK-Blue TLR2 reporter cells)
Excerpt: (§1) P1 fraction tested on reporter cell lines where TLR2, TLR4 or TLR3 is expressed in HEK293 cells and activation of the receptors is observed by NP-kB and AP-1 promoter driven SEAP enzyme secretion.
(§2) HEK-Blue TLR2, HEK-Blue TLR3 and HEK-Blue TLR4 reporter cells expressing SEAP (secreted embryonic alkaline phosphatase) enzyme under NF-kb and AP-1 promoter (Cat. no.# hkb-htlr2, hkb-htlr3 and hkb-htlr4) were purchased from InvivoGen (USA). Human Peripheral blood mononuclear cells (PBMCs) (Cat. no.# CL003-25) were purchased from Himedia laboratories (India). HEK based cells and PBMCs were cultured DMEM and RPMI media, respectively. The cells were maintained at 37° C. incubator with 5% CO2. The culture media was supplemented with 10% Fetal Calf Serum (Gibco) along with standard antibiotics. HEK-Blue selection antibiotics (InvivoGen, Cat. no.# hb-sel, ant-zn and ant-bl) were added as per manufacturers' instructions.
(§3) 2×10^4 HEK-Blue reporter cells were seeded, in each well of a 96 well plate, in HEK-Blue detection media (InvivoGen, Cat. no.# hb-det3) along with the 50 μg/ml of the chito-oligomers. […] The treated cells were incubated at about 37° C. for about 16 hours and absorbance (O.D.) was measured at 620 nm in either TECAN Infinite® 200 PRO or Thermo Scientific Varioskan LUX multimode reader.
Target sequence in this assay (O60603 21-784): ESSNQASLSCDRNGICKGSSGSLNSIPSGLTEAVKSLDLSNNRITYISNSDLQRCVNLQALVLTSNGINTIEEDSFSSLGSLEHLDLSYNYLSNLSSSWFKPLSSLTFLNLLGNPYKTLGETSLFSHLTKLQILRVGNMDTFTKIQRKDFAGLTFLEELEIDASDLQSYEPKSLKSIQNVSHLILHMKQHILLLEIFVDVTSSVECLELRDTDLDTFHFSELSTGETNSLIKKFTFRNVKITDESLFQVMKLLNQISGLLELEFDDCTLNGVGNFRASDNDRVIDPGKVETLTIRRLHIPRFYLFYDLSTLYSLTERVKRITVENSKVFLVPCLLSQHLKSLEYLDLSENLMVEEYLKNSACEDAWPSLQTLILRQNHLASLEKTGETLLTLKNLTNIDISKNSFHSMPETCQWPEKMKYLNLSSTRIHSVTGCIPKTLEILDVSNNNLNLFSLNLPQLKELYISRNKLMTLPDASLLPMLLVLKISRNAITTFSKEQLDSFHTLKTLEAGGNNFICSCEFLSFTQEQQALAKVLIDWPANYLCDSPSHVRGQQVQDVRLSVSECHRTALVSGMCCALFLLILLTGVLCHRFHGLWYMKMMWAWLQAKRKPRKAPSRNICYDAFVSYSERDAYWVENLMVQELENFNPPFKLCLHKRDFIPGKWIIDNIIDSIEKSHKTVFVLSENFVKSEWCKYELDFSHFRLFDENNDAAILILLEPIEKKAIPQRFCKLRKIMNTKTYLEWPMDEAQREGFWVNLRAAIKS

CLP mice = test: Plasma cytokine levels in CLP mice (Bio-Plex multiplex assay); type: in vivo; details: for plasma IL-6 levels: 6 hours post intervention, versus untreated, FIG. 5C; for levels of IL-1b over time / levels of MCP-1 over time / levels of TNF-α over time: individual CLP mice, 6 hours versus 48 hours post treatment
Protocol: The CLP study with 7-9 week old C57BL/6 or BALB/c males was conducted, at animal house facility at TheraIndx Lifesciences Pvt. Ltd. (Bangalore, India) and Institute of Life Sciences (Bhubaneswar, India) respectively, in accordance with ethical practices laid down in the CPCSEA guidelines for animal care and use (CPCSEA, 2003). The Institutional Animals Ethics Committee (IAEC) of the test facility approved the studies. The CLP was performed as described before (Rittirsch et al., 2009; Toscano et al., 2011). Sham control mice had undergone surgery with ceacal manipulations without ligation and puncture. About 500 μl saline was administered subcutaneously immediately after surgery. Tramadol (about 20 mg/kg) was injected subcutaneously for post-operative analgesia. BALB/c mice were injected with single IP close of about 500 μg GA132 (GA is the internal code which has been used by the inventors of the present invention) while C57BL/6 mice received single IP dose of about 300 μg or about 700 μg GA132 6 hours post CLP. A separate group of C57BL/6 mice received single IP dose of about 250 μg of 6-mer, 7-mer or 8-mer at either 6 hour or 24 hour post CLP. All groups except the CLP alone (control) received a single dose of standard antibiotics (amoxicillin and clavulanate) 6 hour post CLP. Control group was injected with saline solution. Total of 92 C57BL/6 and 18 BALB/c mice were used in the study.
The Mutiplex immunoassay for Human and Mouse IL-1b, IL-6, IL-10, TNF-α and MCP-1 were purchased from Bio-Rad. For human cytokines, 1×10^6 PBMCs were seeded in 24 well plate a day before and treated with 100 ng/ml LPS or 50 μg/ml GA132 for 24 hours. The culture supernatant from three independent biological replicates was collected and used for the assay without dilution. For mice cytokines, the plasma samples from mice were collected 6 or 48 hours post treatment and diluted in PBS (Phosphate Buffered Saline) in 1:2 before assay. The assay was performed as per manufacturers' method and the beads were read and analyzed in Bio-Plex® MAGRIX™ Multiplex Reader (Bio-Rad) (https://www.bio-rad.com/webroot/web/pdg/lsr/literature/10014905.pdf).

TLR2 [3] = molecular target: T1, TLR2; details: Das et al., 2019; cited from earlier work
Target sequence in this assay (O60603 21-784, species assumed): as the sequence (O60603 21-784) above

TLR3 = TLR3 (Homo sapiens, UniProt O15455); details: P1 fraction, HEK293 reporter cells, FIG. 7
Excerpt: as §1, §2, §3

[4] = system: septic mice in the CLP model (polymicrobial sepsis); test: Survival of septic mice in CLP model, native protein; type: in vivo
Protocol: About 80% of mice that received 15-35 μg of protein and about 60% mice that received 1-20 μg of protein survived even up to 16 days. More preferably, 80% of mice that received 25 μg of protein and 60% mice that received 10 μg of protein survived even up to 16 days. All the mice in the control group had died in the same duration.

IL-18 = details: monocytes, in vitro, FIG. 8
Excerpt: Increased levels of IL-18 have also been associated with higher mortality in sepsis. In endotoxemia mice models IL-18 knockout mice show better survival than the wild type indicating a role of IL18 in disease severity (Berghe T V, 2014 Eidt M V, 2016).

[5] = system: septic mice in endotoxemia model; test: Survival in endotoxemia model (LPS injection), native protein; type: in vivo; details: treated 6 hours post LPS injection, up to ten days, group G2
Protocol: In this model, post LPS Injection (i.e., 6 hours) animals were treated with vehicle and test agents amongst different groups G1-G5 as specified in figure. G2 (LPS+DIA-1) was treated with the P1 protein while G3 and G4 were other test protein used as experimental controls.

TLR4 = molecular target: T2, TLR4 (Homo sapiens, UniProt O00206); test: HEK-Blue TLR4 reporter assay (NF-kb and AP-1 driven SEAP); type: cell-based; details: P1 fraction, HEK293 reporter cells, FIG. 7
T2 construct: host or cells: HEK293 (HEK-Blue TLR4 reporter cells)
T2 sequence (O00206 24-839): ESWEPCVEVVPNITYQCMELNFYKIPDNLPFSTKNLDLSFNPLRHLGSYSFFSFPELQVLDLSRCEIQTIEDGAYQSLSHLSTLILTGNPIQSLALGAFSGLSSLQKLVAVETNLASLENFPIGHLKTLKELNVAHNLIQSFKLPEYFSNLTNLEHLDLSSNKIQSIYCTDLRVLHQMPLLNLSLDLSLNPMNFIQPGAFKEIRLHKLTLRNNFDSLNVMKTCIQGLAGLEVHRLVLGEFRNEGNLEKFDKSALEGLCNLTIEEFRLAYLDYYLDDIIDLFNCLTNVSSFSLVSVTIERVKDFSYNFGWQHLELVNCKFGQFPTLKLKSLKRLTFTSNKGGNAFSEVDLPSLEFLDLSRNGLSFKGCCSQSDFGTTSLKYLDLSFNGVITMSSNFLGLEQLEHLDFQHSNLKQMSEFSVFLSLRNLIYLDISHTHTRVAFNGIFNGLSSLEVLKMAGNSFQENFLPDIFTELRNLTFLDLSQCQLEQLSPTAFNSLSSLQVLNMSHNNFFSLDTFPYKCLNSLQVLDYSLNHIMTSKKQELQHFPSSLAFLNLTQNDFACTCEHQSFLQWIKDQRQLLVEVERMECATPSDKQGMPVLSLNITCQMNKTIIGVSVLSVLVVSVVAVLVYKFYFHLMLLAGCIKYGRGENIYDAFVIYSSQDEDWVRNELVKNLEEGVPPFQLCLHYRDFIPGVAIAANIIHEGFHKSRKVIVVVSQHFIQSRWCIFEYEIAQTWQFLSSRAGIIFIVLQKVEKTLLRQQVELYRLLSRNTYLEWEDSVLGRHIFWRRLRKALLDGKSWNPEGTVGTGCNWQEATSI
T2 sequence (Q9Y6Y9 17-160 partner limits assumed): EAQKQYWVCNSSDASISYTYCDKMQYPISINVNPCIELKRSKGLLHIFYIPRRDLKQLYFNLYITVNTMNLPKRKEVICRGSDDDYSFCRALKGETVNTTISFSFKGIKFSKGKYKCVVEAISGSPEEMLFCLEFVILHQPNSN
Excerpt: as §1, §2, §3

THP-1 cells = THP-1 cells treated with P1 and Pp, cytokine secretion; type: cell-based, human
Protocol: THP-1 cells (human acute monocytic leukemia cell line) were procured from ATCC (Cat. No# ATCC® TIB-202™). The THP-1 cells were treated with the P1 and Pp to check for any pro-inflammatory activity.

[6] = CLP mice, 48 hours, versus untreated group, FIG. 5D
[7] = C57BL/6 CLP mice, single dose at 24 hours post-surgery

## amoxicillin and clavulanate [Antibiotic—alone, reference compound]
[1]; C57BL/6 CLP mice
  survival over 7 days: 60%

## CC(=O)N[C@H]1[C@H](O[C@H]2[C@H](O)[C@@H](NC(C)=O)[C@H](O[C@H]3[C@H](O)[C@@H](NC(C)=O)[C@H](O[C@H]4[C@H](O)[C@@H](NC(C)=O)C(O)O[C@@H]4CO)O[C@@H]3CO)O[C@@H]2CO)O[C@H](CO)[C@@H](O[C@@H]2O[C@H](CO)[C@@H](O[C@@H]3O[C@H](CO)[C@@H](O[C@@H]4O[C@H](CO)[C@@H](O)[C@H](O)[C@H]4NC(C)=O)[C@H](O)[C@H]3NC(C)=O)[C@H](O)[C@H]2NC(C)=O)[C@@H]1O (some centres unmarked) [7-mer, Hepta-N-acetyl Chitoheptaose]
[1]; C57BL/6 CLP mice
  survival over 7 days: around 90%
[1]; C57BL/6 CLP mice, single dose at 24 hours post-surgery, FIG. 5B
  survival up to 7 days: 80%
[1]; single dose of 200-250 μg 6 hours and 24 hours post-CLP, till day 7, FIG. 4
  mortality: significant mortality reduction
TLR2 [2]; HEK-Blue TLR2 reporter cells, 50 μg/ml
  activity in TLR2 reporter cells compared between oligomers: significantly higher than 8-mer
CLP mice; CLP mice
  plasma IL-6 levels: significant decrease
CLP mice; [6]
  plasma IL-1b: significant reduction
  plasma IL-10: significant reduction
  plasma MCP-1: significant reduction
  plasma TNF-α: significant reduction
CLP mice
  levels of IL-1b over time: significant reduction
  levels of MCP-1 over time: significant reduction
  levels of TNF-α over time: significant reduction

## CC(=O)N[C@H]1[C@H](OC2CCCCC2)O[C@H](CO)[C@@H](O[C@@H]2O[C@H](CO)[C@@H](O)[C@H](O)[C@H]2NC(C)=O)[C@@H]1O [AVR-25]
TLR2 [3]
  binding affinity to TLR2: did not show any binding affinity

## CC(=O)N[C@H]1[C@H](O[C@H]2[C@H](O)[C@@H](NC(C)=O)[C@H](O[C@H]3[C@H](O)[C@@H](NC(C)=O)C(O)O[C@@H]3CO)O[C@@H]2CO)O[C@H](CO)[C@@H](O[C@@H]2O[C@H](CO)[C@@H](O[C@@H]3O[C@H](CO)[C@@H](O[C@@H]4O[C@H](CO)[C@@H](O)[C@H](O)[C@H]4NC(C)=O)[C@H](O)[C@H]3NC(C)=O)[C@H](O)[C@H]2NC(C)=O)[C@@H]1O (some centres unmarked) [6-mer, Hexa-N-acetyl Chitohexaose]
[1]; C57BL/6 CLP mice
  protection over 'Antibiotic-alone' group: no additional protection
[1]; [7]
  survival compared to 'Antibiotic alone' group: no change
CLP mice; CLP mice
  plasma IL-6 levels: significant decrease
CLP mice
  levels of IL-1b over time: no effect
  levels of MCP-1 over time: no effect
  levels of TNF-α over time: no effect

## P1: Major G75 size exclusion peak of AgW from Setaria digitata, a pure glycoprotein identified as Heat Shock Protein 70 (SEQ. ID NO. 1)
TLR3
  activation of TLR3 (SEAP secretion): no activation
[4]; 10 μg of protein
  mice survived up to 16 days: 60%
[4]; 25 μg of protein
  mice survived up to 16 days: 80%
[4]; 1-20 μg of protein
  mice survived up to 16 days: about 60%
[4]; 15-35 μg of protein
  mice survived up to 16 days: About 80%
IL-18
  reduction in IL-18 transcript levels: more than 60%
[5]
  survival: 66%
TLR2 [2]; P1 fraction, HEK293 reporter cells, FIG. 7
  activation of TLR2 (SEAP secretion): activates; also recorded: consistently activating
TLR4
  activation of TLR4 (SEAP secretion): activates; also recorded: consistently activating
THP-1 cells; THP-1 cells
  alternate activation marker CLEC10A or CD301: reduces
THP-1 cells; THP-1 cells, FIG. 1B
  secretion of pro-inflammatory cytokines: highly active
THP-1 cells; THP-1 cells, FIG. 1C
  secretion of IL-1b: promote secretion
  secretion of IL-6: promote secretion
  secretion of IL-10: promote secretion
  secretion of MCP-1: promote secretion
  secretion of TNF-α: promote secretion
THP-1 cells; THP-1 monocytic cells, FIG. 1C
  induction of cytokines: activated the THP-1 monocytic cells

## CC(=O)N[C@H]1[C@H](O[C@H]2[C@H](O)[C@@H](NC(C)=O)[C@H](O[C@H]3[C@H](O)[C@@H](NC(C)=O)[C@H](O[C@H]4[C@H](O)[C@@H](NC(C)=O)C(O)O[C@@H]4CO)O[C@@H]3CO)O[C@@H]2CO)O[C@H](CO)[C@@H](O[C@@H]2O[C@H](CO)[C@@H](O[C@@H]3O[C@H](CO)[C@@H](O[C@@H]4O[C@H](CO)[C@@H](O[C@@H]5O[C@H](CO)[C@@H](O)[C@H](O)[C@H]5NC(C)=O)[C@H](O)[C@H]4NC(C)=O)[C@H](O)[C@H]3NC(C)=O)[C@H](O)[C@H]2NC(C)=O)[C@@H]1O (some centres unmarked) [8-mer, Octa-N-acetyl Chitooctaose]
[1]; C57BL/6 CLP mice
  survival over 7 days: 40%
  protection over 'Antibiotic-alone' group: no additional protection
[1]; [7]
  survival compared to 'Antibiotic alone' group: no change
CLP mice; CLP mice
  plasma IL-6 levels: reduced in 8-mer treated mice when compare to untreated mice but the difference was not found to be significant
CLP mice
  levels of IL-1b over time: increase
  levels of MCP-1 over time: increase
  levels of TNF-α over time: increase
